Experimental findings from US9351965B2, “Indazole derivatives useful as ERK inhibitors” (Merck Sharp & Dohme Corp., priority 2010, dated 2016) are described below.

SMILES strings stand for the structures. pIC50: −log10 of the molar value.

For the assay, the target named is fully phosphorylated, active Mouse ERK2 protein (Mus musculus (Mouse), UniProt P63085). Put plainly: Active ERK2 (aERK) IMAP assay. Type of assay: biochemical. The following applies: IMAP fluorescence polarization; 30 μM ATP; 30 minute pre-incubation. (In general: In fluorescence polarisation assays a small probe gives low polarisation when free and higher when bound to something large.)
Sequence of fully phosphorylated, active Mouse ERK2 protein (P63085 whole entry): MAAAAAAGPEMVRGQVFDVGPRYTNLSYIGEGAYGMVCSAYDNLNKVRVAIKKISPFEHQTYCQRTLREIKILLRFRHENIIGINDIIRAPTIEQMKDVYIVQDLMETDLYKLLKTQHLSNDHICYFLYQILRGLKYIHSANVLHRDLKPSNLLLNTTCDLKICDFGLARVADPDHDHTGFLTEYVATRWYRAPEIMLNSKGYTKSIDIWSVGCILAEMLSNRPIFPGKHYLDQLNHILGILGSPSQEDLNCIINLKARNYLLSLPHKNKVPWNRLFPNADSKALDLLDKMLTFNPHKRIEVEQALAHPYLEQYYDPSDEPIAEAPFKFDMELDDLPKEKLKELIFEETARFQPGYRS

As to `CC(C)Oc1ccc(-c2n[nH]c3ccc(C(=O)N[C@@H]4CCC[C@](O)(Cc5c(F)cccc5F)C4)cc23)cn1` [compound 18, N-[3(S)-[(2,6-difluorophenyl)methyl]-3-hydroxy-1(R)-cyclohexyl]-3-[6-(1-methylethoxy)-3-pyridinyl]-1H-indazole-5-carboxamide], the pIC50 (in general, the negative decadic logarithm of the IC50, by convention in mol/L) is 6.85.

`Cn1cc2cc(-c3n[nH]c4ccc(C(=O)N[C@@H]5CCC[C@](O)(Cc6c(F)cccc6F)C5)cc34)ccc2n1` [compound 19, N-[3(S)-[(2,6-difluorophenyl)methyl]-3-hydroxy-1(R)-cyclohexyl]-3-(2-methyl-2H-indazol-5-yl)-1H-indazole-5-carboxamide] had a negative-log IC50 (pIC50) of 7.92.

`O=C(N[C@@H]1CCC[C@](O)(Cc2c(F)cccc2F)C1)c1ccc2[nH]nc(-c3ccc4ncsc4c3)c2c1` [compound 20, 3-(6-benzothiazolyl)-N-[3(S)-[(2,6-difluorophenyl)methyl]-3-hydroxy-1(R)-cyclohexyl]-1H-indazole-5-carboxamide] gave a pIC50 of 7.47.

Compound `Cc1nc2ccc(-c3n[nH]c4ccc(C(=O)N[C@@H]5CCC[C@](O)(Cc6c(F)cccc6F)C5)cc34)cn2n1` [compound 21, N-[3-(S)-[(2,6-difluorophenyl)methyl]-3-hydroxy-1(R)-cyclohexyl]-3-(2-methyl[1,2,4]triazolo[1,5-a]pyridin-6-yl)-1H-indazole-5-carboxamide] had a pIC50 of 7.68. This pIC50 is 0.21 log units higher than that of the compound before.

On to `COc1cccc(F)c1C[C@@]1(O)CCC[C@@H](NC(=O)c2ccc3[nH]nc(-c4ccnc(C)c4)c3c2)C1` [compound 22, N-[3(S)-[(2-fluoro-6-methoxyphenyl)methyl]-3-hydroxy-1(R)-cyclohexyl]-3-(2-methyl-4-pyridinyl)-1H-indazole-5-carboxamide], for which the pIC50 is 8.70.

Compound `COc1cccc(F)c1C[C@@]1(O)CCC[C@@H](NC(=O)c2ccc3[nH]nc(-c4ccc5nccn5c4)c3c2)C1` [compound 23, N-[3(S)-[(2-fluoro-6-methoxyphenyl)methyl]-3-hydroxy-1(R)-cyclohexyl]-3-imidazo[1,2-a]pyridin-6-yl-1H-indazole-5-carboxamide] showed a pIC50 of 8.66.

`COc1cccc(F)c1C[C@@]1(O)CCC[C@@H](NC(=O)c2ccc3[nH]nc(-c4ccc5nc(C)sc5c4)c3c2)C1` [compound 24, N-[3(S)-[(2-fluoro-6-methoxyphenyl)methyl]-3-hydroxy-1(R)-cyclohexyl]-3-(2-methyl-6-benzothiazolyl)-1H-indazole-5-carboxamide] gave a pIC50 of 8.05.

For `COc1cccc(F)c1C[C@@]1(O)CCC[C@@H](NC(=O)c2ccc3[nH]nc(-c4ccnc(OC(C)C)c4)c3c2)C1` [compound 25, N-[3(S)-[(2-fluoro-6-methoxyphenyl)methyl]-3-hydroxy-1(R)-cyclohexyl]-3-[2-(1-methylethoxy)-4-pyridinyl]-1H-indazole-5-carboxamide], the pIC50 is 6.48. This pIC50 lies 1.57 log units lower than the previous one.

In turn, `COc1cccc(F)c1C[C@@]1(O)CCC[C@@H](NC(=O)c2ccc3[nH]nc(-c4ccc(OC(C)C)cc4)c3c2)C1` [compound 26, N-[3(S)-[(2-fluoro-6-methoxyphenyl)methyl]-3-hydroxy-1(R)-cyclohexyl]-3-[4-(1-methylethoxy)phenyl]-1H-indazole-5-carboxamide] had a pIC50 of 7.10.

The compound `Cc1cc(-c2n[nH]c3ccc(C(=O)NC4CCCC(Oc5c(C)cccc5C)C4)cc23)ccn1` (centres unmarked) [compound 31, N-[3-(2,6-dimethylphenoxy)cyclohexyl]-3-(2-methyl-4-pyridinyl)-1H-indazole-5-carboxamide] had a pIC50 of 6.33.

Take `Cc1cc(-c2n[nH]c3ccc(C(=O)NC4CCCC(Oc5c(F)cccc5F)C4)cc23)ccn1` (centres unmarked) [compound 32, N-[3-(2,6-difluorophenoxy)cyclohexyl]-3-(2-methyl-4-pyridinyl)-1H-indazole-5-carboxamide]: the negative-log IC50 (pIC50) was 6.24.

In the case of `Cc1cc(-c2n[nH]c3ccc(C(=O)NC4CCCC(Oc5ccccc5F)C4)cc23)ccn1` (centres unmarked) [compound 33, N-[3-(2-fluorophenoxy)cyclohexyl]-3-(2-methyl-4-pyridinyl)-1H-indazole-5-carboxamide], the negative logarithm of the IC50 (pIC50) is 6.94.

`Cc1cc(-c2n[nH]c3ccc(C(=O)NN4CCCC(Oc5ccccc5Cl)C4)cc23)ccn1` (centres unmarked) [compound 36, N-[3-(2-chlorophenoxy)-1-piperidinyl]-3-(2-methyl-4-pyridinyl)-1H-indazole-5-carboxamide] had a negative-log IC50 (pIC50) of 7.39.

On to `COC1(Cc2ccccc2F)CCCC(NC(=O)c2ccc3[nH]nc(-c4ccnc(C)c4)c3c2)C1` (centres unmarked) [compound 39, N-[3-[(2-fluorophenyl)methyl]-3-methoxycyclohexyl]-3-(2-methyl-4-pyridinyl)-1H-indazole-5-carboxamide], for which the pIC50 is 7.55.

Regarding `COC1(Cc2ccccc2F)CCCC(NC(=O)c2ccc3[nH]nc(-c4ccnc(C)c4)c3c2)C1` (centres unmarked) [compound 40, N-[3-[(2-fluorophenyl)methyl]-3-methoxycyclohexyl]-3-(2-methyl-4-pyridinyl)-1H-indazole-5-carboxamide], the negative logarithm of the IC50 (pIC50) was 6.69.

Compound `Cc1cc(-c2n[nH]c3ccc(C(=O)NC4CCCC(CO)(Oc5ccccc5)C4)cc23)ccn1` (centres unmarked) [compound 41, N-[3-(hydroxymethyl)-3-phenoxycyclohexyl]-3-(2-methyl-4-pyridinyl)-1H-indazole-5-carboxamide] had a negative-log IC50 (pIC50) of 7.00.

In turn, `Cc1cc(-c2n[nH]c3ccc(C(=O)NC4CCCC(Oc5cccc(F)c5)(C(N)=O)C4)cc23)ccn1` (centres unmarked) [compound 42, N-[3-(aminocarbonyl)-3-(3-fluorophenoxy)cyclohexyl]-3-(2-methyl-4-pyridinyl)-1H-indazole-5-carboxamide] showed a pIC50 of 7.95.

`Cc1cc(-c2n[nH]c3ccc(C(=O)NC4CCCC(O)(C(F)(F)c5ccccc5)C4)cc23)ccn1` (centres unmarked) [compound 46, N-[3-(difluorophenylmethyl)-3-hydroxycyclohexyl]-3-(2-methyl-4-pyridinyl)-1H-indazole-5-carboxamide]: the pIC50 is 6.20.

`Cc1cc(-c2n[nH]c3ccc(C(=O)NC4CCCC(O)(C(=O)c5ccccc5)C4)cc23)ccn1` (centres unmarked) [compound 47, N-(3-benzoyl-3-hydroxycyclohexyl)-3-(2-methyl-4-pyridinyl)-1H-indazole-5-carboxamide] had a pIC50 of 6.24.

Compound `Cc1cc(-c2n[nH]c3ccc(C(=O)NC4CCCC(O)(C(F)(F)c5ccccc5)C4)cc23)ccn1` (centres unmarked) [compound 48, N-[3-(difluorophenylmethyl)-3-hydroxycyclohexyl]-3-(2-methyl-4-pyridinyl)-1H-indazole-5-carboxamide] had a pIC50 of 6.98.

The compound `Cc1cc(-c2n[nH]c3ccc(C(=O)NC4CCCC(O)(C(O)c5ccccc5)C4)cc23)ccn1` (centres unmarked) [compound 49, N-[3-hydroxy-3-(hydroxyphenylmethyl)cyclohex-yl]-3-(2-methyl-4-pyridinyl)-1H-indazole-5-carboxamide (diasterimer 1)] showed a pIC50 of 7.60.

Consider `Cc1cc(-c2n[nH]c3ccc(C(=O)NC4CCCC(O)(C(O)c5ccccc5)C4)cc23)ccn1` (centres unmarked) [compound 50, N-[3-hydroxy-3-(hydroxyphenylmethyl)cyclohex-yl]-3-(2-methyl-4-pyridinyl)-1H-indazole-5-carboxamide (diasterimer 2)], for which the pIC50 was 7.32. Against the preceding compound, the pIC50 is 0.28 log units lower.

In turn, `Cc1cc(-c2n[nH]c3ccc(C(=O)NC4CCCC(O)(C(O)c5ccccc5)C4)cc23)ccn1` (centres unmarked) [compound 51, N-[3-hydroxy-3-(hydroxyphenylmethyl)cyclohex-yl]-3-(2-methyl-4-pyridinyl)-1H-indazole-5-carboxamide (diasterimer 3)] had a negative logarithm of the IC50 (pIC50) of 6.69. This pIC50 lies 0.63 log units lower than the previous one.

Compound `Cc1cc(-c2n[nH]c3ccc(C(=O)NC4CCCC(O)(C(O)c5ccccc5)C4)cc23)ccn1` (centres unmarked) [compound 52, N-[3-hydroxy-3-(hydroxyphenylmethyl)cyclohex-yl]-3-(2-methyl-4-pyridinyl)-1H-indazole-5-carboxamide (diasterimer 4)] gave a negative-log IC50 (pIC50) of 6.53.

In the case of `Cc1cc(-c2n[nH]c3ccc(C(=O)NC4CCCC(O)(C(=O)c5ccccc5)C4)cc23)ccn1` (centres unmarked) [compound 53, N-(3-benzoyl-3-hydroxycyclohexyl)-3-(2-methyl-4-pyridinyl)-1H-indazole-5-carboxamide], the negative logarithm of the IC50 (pIC50) is 6.59.

Compound `Cc1cc(-c2n[nH]c3ccc(C(=O)N[C@@H]4CCC[C@](O)(Cn5ncc6ccccc65)C4)cc23)ccn1` [compound 65, N-[3(R)-hydroxy-3-(1H-indazol-1-ylmethyl)-1(R)-cyclohexyl]-3-(2-methyl-4-pyridinyl)-1H-indazole-5-carboxamide] had a pIC50 of 6.01. This pIC50 is 0.58 log units lower than that of the compound before.

With `Cc1cc(-c2n[nH]c3ccc(C(=O)N[C@@H]4CCC[C@@](O)(Cn5ncc6ccccc65)C4)cc23)ccn1` [compound 66, N-[3(S)-hydroxy-3-(1H-indazol-1-ylmethyl)-1(R)-cyclohexyl]-3-(2-methyl-4-pyridinyl)-1H-indazole-5-carboxamide], the pIC50 was 8.15. This pIC50 is 2.14 log units higher than that of the compound before.

The compound `Cc1cc(-c2n[nH]c3ccc(C(=O)N[C@@H]4CCC[C@@](O)(Cn5c(C(F)(F)F)nc6ccccc65)C4)cc23)ccn1` [compound 68] showed a pIC50 of 6.09.

The compound `Cc1cc(-c2n[nH]c3ccc(C(=O)N[C@H]4CCC[C@@](O)(Cn5c(C)nc6ccccc65)C4)cc23)ccn1` [compound 69, N-[trans-3-hydroxy-3-[(2-methyl-1H-benzimidazol-1-yl)methyl]cyclohexyl]-3-(2-methyl-4-pyridinyl)-H-indazole-5-carboxamide] showed a pIC50 of 7.28.

`Cc1cc(-c2n[nH]c3ccc(C(=O)N[C@H]4CCC[C@](O)(Cn5c(C)nc6ccccc65)C4)cc23)ccn1` [compound 70] showed a pIC50 of 6.48.

As for `O=C(N[C@@H]1CCC[C@@](O)(Cn2ncc3ncccc32)C1)c1ccc2[nH]nc(-c3ccc4nccn4c3)c2c1` [compound 86, N-[cis-3-hydroxy-3-(1H-pyrazolo[4,3-b]pyridN-1-ylmethyl)cyclohexyl]-3-imidazo[1,2-a]pyridiN-6-yl-1H-indazole-5-carboxamide], the negative-log IC50 (pIC50) is 6.00.

As for `Cn1cc2cc(-c3n[nH]c4ccc(C(=O)NC5CCCC(Cn6ccnc6)C5)cc34)ccc2n1` (centres unmarked) [compound 108, N-[3-(1H-imidazol-1-ylmethyl)cyclohexyl]-3-(2-methyl-2H-indazol-5-yl)-1H-indazole-5-carboxamide], the pIC50 was 7.53.
